Laboratory results as given in the NIST ThermoML archive (doi:10.1021/je700260f).

Details: 303.15 K, Liquid, Vibrating tube method

FC(C(F)(F)F)C(F)(F)F [1,1,1,2,3,3,3-heptafluoropropane]
Details	mass density [kg/m3]
1945 kPa	1378.6
1968 kPa	1378.8
1989 kPa	1379
2014 kPa	1379.2
2041 kPa	1379.4
2063 kPa	1379.7
2084 kPa	1379.7
2105 kPa	1379.8
2131 kPa	1380.1
2283 kPa	1381.5
2308 kPa	1381.6
2332 kPa	1381.8
2353 kPa	1381.9
2378 kPa	1382.2
2402 kPa	1382.4
2418 kPa	1382.4
2439 kPa	1382.6
2461 kPa	1382.7
2482 kPa	1383
2510 kPa	1383.4
2528 kPa	1383.3
2552 kPa	1383.4
2569 kPa	1383.6
2591 kPa	1383.8
2607 kPa	1384
2632 kPa	1384.1
2651 kPa	1384.2
2673 kPa	1384.4
2695 kPa	1384.5
2718 kPa	1384.7
2737 kPa	1384.9
2762 kPa	1385
3000 kPa	1387
3022 kPa	1387.1
3068 kPa	1387.5
3088 kPa	1387.7
3114 kPa	1387.8
3136 kPa	1387.9
3203 kPa	1388.6
3222 kPa	1388.8
3271 kPa	1389
3293 kPa	1389.2
3319 kPa	1389.4
3357 kPa	1389.6
3383 kPa	1389.8
3402 kPa	1390.2
3428 kPa	1390.3
3448 kPa	1390.3
3471 kPa	1390.4
3498 kPa	1390.7
3521 kPa	1390.8
3541 kPa	1391.2
3568 kPa	1391.4
3587 kPa	1391.3
3614 kPa	1391.6
3637 kPa	1391.7
3667 kPa	1391.9
3690 kPa	1392.1
3714 kPa	1392.2
3735 kPa	1392.5
3765 kPa	1392.7
3789 kPa	1393
3820 kPa	1393
3844 kPa	1393.3
3875 kPa	1393.5
3902 kPa	1393.7
3919 kPa	1393.8
3940 kPa	1394
3964 kPa	1394.2
3991 kPa	1394.5
4022 kPa	1394.6
4050 kPa	1394.7
4072 kPa	1395
4099 kPa	1395.1
4123 kPa	1395.3
4147 kPa	1395.5
4168 kPa	1395.6
4189 kPa	1395.8
4217 kPa	1396
4249 kPa	1396.3
4273 kPa	1396.5
4290 kPa	1396.4
4416 kPa	1397.5
4444 kPa	1397.6
4466 kPa	1397.8
4497 kPa	1397.9
4524 kPa	1398
4552 kPa	1398.4
4582 kPa	1398.6
4611 kPa	1398.9
4633 kPa	1399.1
4659 kPa	1399.4
4684 kPa	1399.2
4710 kPa	1399.5
4735 kPa	1399.6
4765 kPa	1399.9
4788 kPa	1400
4811 kPa	1400.2
4875 kPa	1400.6
4904 kPa	1400.9
4933 kPa	1401.1
4958 kPa	1401.2
4984 kPa	1401.4
5013 kPa	1401.5
5035 kPa	1401.8
5060 kPa	1401.7
5082 kPa	1402.2
5116 kPa	1402.4
5146 kPa	1402.4
5172 kPa	1402.6
5194 kPa	1402.8
5221 kPa	1403
5239 kPa	1403
5261 kPa	1403.2
5286 kPa	1403.5
5308 kPa	1403.6
5335 kPa	1403.7
5356 kPa	1403.9
5379 kPa	1404
5405 kPa	1404.1
5427 kPa	1404.4
5457 kPa	1404.7
5479 kPa	1404.8
5509 kPa	1405
5546 kPa	1405.2
5568 kPa	1405.3
5609 kPa	1405.6
5635 kPa	1405.8
5654 kPa	1405.9
5688 kPa	1406.2
5715 kPa	1406.3
5738 kPa	1406.4
5768 kPa	1406.6
5795 kPa	1406.8
5829 kPa	1407.1
5856 kPa	1407.3
5879 kPa	1407.3
5906 kPa	1407.7
5934 kPa	1407.9
5957 kPa	1408
5980 kPa	1408.2
6003 kPa	1408.2
6033 kPa	1408.4
6056 kPa	1408.6
6080 kPa	1408.8
6108 kPa	1408.9
6135 kPa	1409
6167 kPa	1409.2
6186 kPa	1409.4
6217 kPa	1409.6
6240 kPa	1409.7
6272 kPa	1409.9
6300 kPa	1410.1
6332 kPa	1410.3
6356 kPa	1410.5
6382 kPa	1410.7
6413 kPa	1410.8
6441 kPa	1411.1
6469 kPa	1411.1
6493 kPa	1411.3
6529 kPa	1411.6
6556 kPa	1411.7
6581 kPa	1411.9
6617 kPa	1412.2
6647 kPa	1412.4
6675 kPa	1412.6
6699 kPa	1412.7
6720 kPa	1412.9
6744 kPa	1413.1
6772 kPa	1413.3
6796 kPa	1413.4
6820 kPa	1413.5
6845 kPa	1413.6
6881 kPa	1414
6909 kPa	1414.1
6937 kPa	1414.3
6974 kPa	1414.4
7006 kPa	1414.7
7030 kPa	1414.8
7056 kPa	1415
7077 kPa	1415.1
7110 kPa	1415.2
7138 kPa	1415.5
7171 kPa	1415.7
7192 kPa	1415.8
7216 kPa	1416
7441 kPa	1417.3
7474 kPa	1417.5
7507 kPa	1417.7
7536 kPa	1417.9
7570 kPa	1418.2
7599 kPa	1418.3
7628 kPa	1418.5
7669 kPa	1418.7
7702 kPa	1418.8
7727 kPa	1419
7762 kPa	1419.2
7795 kPa	1419.4
7821 kPa	1419.5
7850 kPa	1419.8
7879 kPa	1420
7912 kPa	1420.3
7941 kPa	1420.4
7970 kPa	1420.6
8008 kPa	1420.7
8033 kPa	1421
